“Also recorded” adds a separate entry of the source. Where two headings read alike, the source gives them in different places.
Experiments:
[1] = biological target: T1, DC-SIGN on immature monocyte derived DC (Homo sapiens, UniProt Q9NNX6); test: Fluorescent bead adhesion assay, immature DC; assay type: cell-based
T1 construct: Immature DC were cultured from monocytes in the presence of IL-4 and GM-CSF; endogenous in cells; host or cells: immature monocyte-derived dendritic cells
T1 sequence (Q9NNX6 1-404): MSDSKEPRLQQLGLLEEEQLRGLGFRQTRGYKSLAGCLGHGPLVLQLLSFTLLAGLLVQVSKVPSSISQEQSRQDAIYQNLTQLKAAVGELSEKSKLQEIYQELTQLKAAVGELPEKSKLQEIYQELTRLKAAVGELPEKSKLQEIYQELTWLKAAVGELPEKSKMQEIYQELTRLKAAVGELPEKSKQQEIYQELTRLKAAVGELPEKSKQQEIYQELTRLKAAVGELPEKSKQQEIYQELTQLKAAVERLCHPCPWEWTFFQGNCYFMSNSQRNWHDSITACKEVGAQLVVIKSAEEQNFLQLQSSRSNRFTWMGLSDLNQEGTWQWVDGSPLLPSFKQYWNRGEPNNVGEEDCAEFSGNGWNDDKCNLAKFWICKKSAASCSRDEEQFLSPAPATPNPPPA

granulocytes = test: DC-SIGN-Fc adhesion to granulocytes
DC-SIGN-Fc [2] = biological target: T2, DC-SIGN-Fc (Homo sapiens, UniProt Q9NNX6); test: Soluble DC-SIGN-Fc adhesion assay (Fc ELISA)
T2 sequence (Q9NNX6 64-404): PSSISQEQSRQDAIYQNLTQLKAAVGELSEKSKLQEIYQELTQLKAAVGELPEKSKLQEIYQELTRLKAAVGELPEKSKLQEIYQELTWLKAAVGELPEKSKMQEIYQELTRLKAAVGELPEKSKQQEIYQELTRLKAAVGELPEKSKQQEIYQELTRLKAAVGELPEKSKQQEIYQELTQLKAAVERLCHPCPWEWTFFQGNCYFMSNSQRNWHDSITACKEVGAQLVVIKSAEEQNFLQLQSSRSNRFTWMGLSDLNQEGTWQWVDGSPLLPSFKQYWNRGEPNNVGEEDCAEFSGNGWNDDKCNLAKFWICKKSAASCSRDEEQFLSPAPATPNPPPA

[3] = biological target: T3, DC-SIGN expressed by K562 transfectants (Homo sapiens, UniProt Q9NNX6); assay type: cell-based
T3 construct: expressed in transfected cells; host or cells: K562
T3 sequence (Q9NNX6 1-404): T1 sequence (Q9NNX6 1-404)

DC-SIGN-Fc [4] = biological target: T2, DC-SIGN-Fc; test: Immunoprecipitation and detection with DC-SIGN-Fc; assay type: binding; conditions: immunoprecipitation
From the text: FIG. 59. […] Cell-surface proteins are biotinylated and PMNs are lysed. Lane 1. negative control using ICAM-3 Fc to capture by IP proteins. Detection is peroxidase-labeled streptavidin. Lane 2. DC-SIGN-Fc is used to capture ligands biotinylated ligands from lysate; two protein bands are visible, the upper band consists of CD11b and CD66a, whereas the lower consists of CD18. Lane 3. Negative control; no bands are immune precipitated with anti-DC-SIGN antibodies. Lane 4, IP with antibodies against CD66acd; a faint band is visible containing CD66a. Lane 5, IP of CD11b; two bands are visible; the upper band is […] and the lower band is CD18m, which is co-immuneprecipitated with […]. Lane 6. IP with DC-SIGN ligands and detection with anti-CD66acd; CD66a is captured by DC-SIGN Fc. Lane 7. IP with DC-SIGN ligands and detection with anti-CD11b; CD11b is captured by DC-SIGN Fc. Lane 8. Negative control, IP with anti-DC-SIGN antibodies and detection with DC-SIGN-Fc. Lane 9. IP with anti-CD66acd and detection with DC-SIGN Fc; CD66a is bound by DC-SIGN on blot. Lane 10. IP with anti-CD11a and detection with DC-SIGN Fc; CD11a is bound by DC-SIGN on blot.
Immunoprecipitation. […]

[5] = biological target: L-SIGN expressed by K562 transfectants (Homo sapiens, UniProt Q9H2X3); assay type: cell-based
mSIGNR1 = mSIGNR1 (Mus musculus, UniProt Q8CJ91); assay type: cell-based, murine
immature DC = assay type: cell-based, human
[6] = system: K562 transfectants expressing DC-SIGN; assay type: cell-based, human

Chain of mSIGNR1 (Q8CJ91 whole entry): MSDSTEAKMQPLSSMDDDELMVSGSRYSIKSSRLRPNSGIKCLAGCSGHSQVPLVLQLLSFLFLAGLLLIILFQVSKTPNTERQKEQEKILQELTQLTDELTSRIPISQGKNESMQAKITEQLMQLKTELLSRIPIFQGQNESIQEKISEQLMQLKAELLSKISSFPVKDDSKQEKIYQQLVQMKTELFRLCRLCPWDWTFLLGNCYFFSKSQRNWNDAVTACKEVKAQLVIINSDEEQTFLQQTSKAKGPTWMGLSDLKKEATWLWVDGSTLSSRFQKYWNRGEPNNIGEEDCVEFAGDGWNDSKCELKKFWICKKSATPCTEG
Chain of L-SIGN expressed by K562 transfectants (Q9H2X3 whole entry, looked up): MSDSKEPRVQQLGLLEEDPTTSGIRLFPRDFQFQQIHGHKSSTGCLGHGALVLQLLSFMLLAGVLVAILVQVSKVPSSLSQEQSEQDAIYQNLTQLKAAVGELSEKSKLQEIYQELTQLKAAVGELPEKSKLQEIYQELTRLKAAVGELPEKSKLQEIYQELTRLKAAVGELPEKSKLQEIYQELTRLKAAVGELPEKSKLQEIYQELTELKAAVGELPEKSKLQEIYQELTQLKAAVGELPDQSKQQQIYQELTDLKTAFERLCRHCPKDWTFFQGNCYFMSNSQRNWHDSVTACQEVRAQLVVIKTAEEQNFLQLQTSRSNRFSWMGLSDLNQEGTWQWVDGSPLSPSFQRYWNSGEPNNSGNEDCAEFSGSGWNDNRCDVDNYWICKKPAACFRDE

Q: `O=C(O)CN(CCOCCOCCN(CC(=O)O)CC(=O)O)CC(=O)O` [EGTA] was tested. Which “inhibition of ManLAM binding by immature DC” value [1] did it give?
A: block

Q: And the “inhibition of DC-SIGN-Fc binding to granulocytes” value (granulocytes)?
A: blocked

Q: And the “inhibition of DC-SIGN-Fc binding to SEA” value (DC-SIGN-Fc [2]; coated SEA)?
A: completely inhibited

Q: And the “inhibition of DC-SIGN-Fc binding to M. tuberculosis and M. bovis BCG” value (DC-SIGN-Fc [2]; coated whole mycobacteria)?
A: inhibited

Q: Which “binding of ligand-coated beads to K562 DC-SIGN transfectants” value (from here on “binding … to K562 DC-SIGN transfectants”) [3] does the source give for “CD11b: Lewis X-expressing CD11b captured from PMN lysate” here?
A: interacted strongly

Q: What about the “binding of DC-SIGN-Fc after α-1,3,4 Fucosidase treatment of the ligand” value (DC-SIGN-Fc [4]) of the same compound?
A: abrogated

Q: What about the “binding of DC-SIGN-Fc to coated ligand” value (DC-SIGN-Fc [2]; ELISA, ligand coated) of the same compound?
A: high affinity binding

Q: mannan was tested. Which “binding … to K562 DC-SIGN transfectants” value [3] did it give?
A: bind

Q: And the “inhibition of gp120 binding to DC-SIGN” value [3]?
A: inhibited

Q: And the “inhibition of ManLAM binding by immature DC” value [1]?
A: block

Q: And the “inhibition of SEA binding to DC” value [1]?
A: strongly blocked

Q: What about the “binding of ligand-coated beads to K562 L-SIGN transfectants” value [5] of the same compound?
A: bind

Q: And the “inhibition of gp120 binding to L-SIGN” value [5]?
A: inhibited

Q: What about the “binding of ligand-coated beads to K562 mSIGNR1 transfectants” value (mSIGNR1) of the same compound?
A: bind

Q: And the “inhibition of gp120 binding to mSIGNR1” value (mSIGNR1)?
A: inhibited

Q: And the “inhibition of M. bovis BCG binding/infection of immature DC” value (immature DC)?
A: blocked the infection to a similar level as the DC-SIGN antibodies

Q: What about the “inhibition of Neisseria IgtB binding to DC” value (immature DC) of the same compound?
A: partly inhibit

Q: And the “inhibition of internalization of M. bovis BCG by K562 DC-SIGN transfectants” value [6]?
A: blocked

Q: And the “inhibition of DC-SIGN-Fc binding to granulocytes” value (granulocytes)?
A: blocked

Q: And the “binding of DC-SIGN-Fc to coated ligand” value (DC-SIGN-Fc [2])?
A: binds

Q: What about the “inhibition of DC-SIGN-Fc binding to M. tuberculosis and M. bovis BCG” value (DC-SIGN-Fc [2]) of the same compound?
A: inhibited

Q: Which results are given for sialyl Lewis A?
A: binding of ligand-coated beads to K562 DC-SIGN transfectants [3]: bind; binding of ligand-coated beads to K562 mSIGNR1 transfectants (mSIGNR1): bind

Q: With sialyl-Le^x as the compound, how does the “binding of ligand-coated beads to K562 mSIGNR1 transfectants” value (mSIGNR1) read?
A: interacts

Q: What about the “binding of DC-SIGN-Fc to coated ligand” value (DC-SIGN-Fc [2]) of the same compound?
A: completely abrogates the recognition; also recorded: lower binding affinity

Q: With α1->3, α1->6 mannotriose as the compound, how does the “binding … to K562 DC-SIGN transfectants” value [3] read?
A: bound similarly to the glycoconjugates as DC-SIGN-Fc

Q: And the “binding of ligand-coated beads to immature DC” value [1]?
A: preferentially bound by DC-SIGN

Q: And the “binding of DC-SIGN-Fc to coated ligand” value (DC-SIGN-Fc [2])?
A: binds; also recorded: high affinity

Q: […]-L-fucose was tested. Which “binding of DC-SIGN-Fc to coated ligand” value (DC-SIGN-Fc [2]) did it give?
A: lower binding affinity
